Measured values from ChEMBL document CHEMBL1201862, “PubChem BioAssay data set” (2004).
Active and inactive are the calls of the source.

Assays:
[1] = molecular target: 26S proteasome non-ATPase regulatory subunit 14 (Homo sapiens, UniProt O00487); experiment: inhibition of proteasome subunit RPN11 – biochemical, fluorescence polarization, uHTS hits, confirmation (AID 602368); type: functional
[2] = molecular target: 72 kDa type IV collagenase (Homo sapiens, UniProt P08253); experiment: Dose Response validation of uHTS RPN11 inhibitor hits using a MMP-2 Fluorescence assay.; type: functional
[3] = molecular target: Prothrombin (Bos taurus, UniProt P00735); experiment: thrombin protease inhibitors – biochemical, fluorescence polarization, uHTS hits, dose response (AID 602369); type: functional
[4] = test system: Candida albicans; experiment: resistant Candida growth with fluconazole co-treatment – CaCi-8 strain, Alamar Blue, dry powder, set 3, dose response (AID 488905); type: functional, organism-based
[5] = test system: Candida albicans; experiment: Candida growth inhibition combined with fluconazole – CaCi-2 strain, Alamar Blue, dry powder, set 3, dose response (AID 488907); type: functional, organism-based
[6] = SAR analysis of small molecule activators of Apaf-1 using a LZ-Caspase-9/Caspase-3 Fluorescent Selectivity assay - Set 2.; type: functional; conditions: read-out: EC50_Mean
[7] = molecular target: T1, Apoptotic protease-activating factor 1 (Homo sapiens, UniProt O14727); experiment: SAR analysis of small molecule Activators of Apaf-1 in a Fluorescent assay - set 2.; type: functional; conditions: read-out: EC50_Mean
T1 sequence (O14727 whole entry): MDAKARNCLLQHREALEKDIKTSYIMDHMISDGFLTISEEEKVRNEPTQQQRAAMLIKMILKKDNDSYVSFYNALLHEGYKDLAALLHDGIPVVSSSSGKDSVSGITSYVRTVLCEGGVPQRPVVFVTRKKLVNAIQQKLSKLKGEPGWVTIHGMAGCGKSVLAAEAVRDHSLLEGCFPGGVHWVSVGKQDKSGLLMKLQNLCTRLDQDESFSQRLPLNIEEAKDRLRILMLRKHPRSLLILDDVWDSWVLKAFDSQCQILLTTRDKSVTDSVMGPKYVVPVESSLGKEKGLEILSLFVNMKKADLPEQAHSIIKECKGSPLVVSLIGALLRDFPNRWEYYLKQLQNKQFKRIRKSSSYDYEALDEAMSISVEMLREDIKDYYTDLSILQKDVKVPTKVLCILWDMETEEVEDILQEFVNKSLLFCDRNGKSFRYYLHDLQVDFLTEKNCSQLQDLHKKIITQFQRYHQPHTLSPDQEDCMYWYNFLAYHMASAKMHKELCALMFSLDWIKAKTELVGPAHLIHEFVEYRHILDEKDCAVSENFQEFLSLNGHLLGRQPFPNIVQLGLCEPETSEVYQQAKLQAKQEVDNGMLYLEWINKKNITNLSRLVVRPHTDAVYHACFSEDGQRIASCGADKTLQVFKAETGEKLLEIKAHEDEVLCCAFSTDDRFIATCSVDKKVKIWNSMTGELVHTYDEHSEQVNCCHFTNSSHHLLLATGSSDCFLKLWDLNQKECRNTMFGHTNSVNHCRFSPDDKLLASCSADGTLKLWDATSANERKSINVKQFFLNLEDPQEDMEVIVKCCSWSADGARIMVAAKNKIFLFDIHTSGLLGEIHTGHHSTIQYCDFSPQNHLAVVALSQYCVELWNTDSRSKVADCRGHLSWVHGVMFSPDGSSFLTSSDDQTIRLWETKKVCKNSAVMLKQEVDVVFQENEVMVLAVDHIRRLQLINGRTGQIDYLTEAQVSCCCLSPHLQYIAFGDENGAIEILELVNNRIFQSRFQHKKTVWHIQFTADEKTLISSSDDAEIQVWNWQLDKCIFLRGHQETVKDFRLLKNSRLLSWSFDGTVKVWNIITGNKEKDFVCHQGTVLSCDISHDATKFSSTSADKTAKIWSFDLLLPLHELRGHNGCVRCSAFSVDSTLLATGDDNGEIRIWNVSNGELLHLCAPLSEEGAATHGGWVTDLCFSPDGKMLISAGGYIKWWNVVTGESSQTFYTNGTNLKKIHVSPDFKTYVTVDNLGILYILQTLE

[8] = test system: HEK293; experiment: HEK293T cell viability loss, resazurin readout – resazurin fluorescence, cytotoxicity control for NF-kB activator project, SAR follow-up (AID 493251); type: functional, cell-based; conditions: Homo sapiens
[9] = test system: Jurkat; experiment: SAR Analysis of small molecule inhibitors of both B-cell and T-cell specific antigen receptor-induced NF-kB activation in a Jurkat cell line using a luminescence assay. [Related pubchem assays (depositor defined):AID435003, AID435022, AID465, AID489029]; type: functional, cell-based; conditions: Homo sapiens
[10] = test system: HEK293; experiment: SAR Analysis of small molecule inhibitors of both B-cell and T-cell specific antigen receptor-induced NF-kB activation in a HEK-293T cell line using a luminescence assay. [Related pubchem assays (depositor defined):AID435003, AID435022, AID465, AID489019, AID489029]; type: functional, cell-based; conditions: Homo sapiens

Chain of 26S proteasome non-ATPase regulatory subunit 14 (O00487 whole entry): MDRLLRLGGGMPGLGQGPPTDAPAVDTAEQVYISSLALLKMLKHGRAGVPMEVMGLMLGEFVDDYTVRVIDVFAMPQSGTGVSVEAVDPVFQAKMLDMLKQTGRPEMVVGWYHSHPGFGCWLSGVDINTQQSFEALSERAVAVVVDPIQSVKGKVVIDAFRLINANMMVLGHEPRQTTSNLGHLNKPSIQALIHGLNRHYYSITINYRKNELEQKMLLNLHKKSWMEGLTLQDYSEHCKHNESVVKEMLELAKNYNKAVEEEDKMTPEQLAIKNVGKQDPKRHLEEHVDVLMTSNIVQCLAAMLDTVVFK
Chain of 72 kDa type IV collagenase (P08253 whole entry): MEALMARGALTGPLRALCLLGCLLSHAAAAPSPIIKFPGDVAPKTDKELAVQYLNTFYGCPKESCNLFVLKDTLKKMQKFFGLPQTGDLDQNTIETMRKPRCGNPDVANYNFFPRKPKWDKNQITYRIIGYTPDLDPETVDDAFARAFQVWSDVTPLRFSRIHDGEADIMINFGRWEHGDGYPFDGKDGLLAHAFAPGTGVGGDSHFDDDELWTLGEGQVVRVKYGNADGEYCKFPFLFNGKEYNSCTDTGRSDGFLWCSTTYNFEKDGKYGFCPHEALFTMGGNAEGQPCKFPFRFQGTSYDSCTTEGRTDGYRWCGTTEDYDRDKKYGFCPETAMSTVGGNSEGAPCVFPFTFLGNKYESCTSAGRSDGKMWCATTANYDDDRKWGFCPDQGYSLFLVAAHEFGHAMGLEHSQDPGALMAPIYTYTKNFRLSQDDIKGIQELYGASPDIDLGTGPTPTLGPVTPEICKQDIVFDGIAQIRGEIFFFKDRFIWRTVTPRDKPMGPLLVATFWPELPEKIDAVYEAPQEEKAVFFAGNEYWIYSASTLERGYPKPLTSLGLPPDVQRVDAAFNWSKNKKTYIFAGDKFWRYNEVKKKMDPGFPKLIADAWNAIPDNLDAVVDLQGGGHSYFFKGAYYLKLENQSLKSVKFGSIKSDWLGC

With `O=[N+]([O-])c1ccc(N/N=C/c2sc(N3CCOCC3)nc2-c2ccccc2)c(S(=O)(=O)Nc2ccccc2Cl)c1` the IC50 [1] was 658 nM (active), the IC50 [2] was > 100 µM (inactive) and the IC50 [3] was 564 nM (active).

With `Cc1ccc(N2CCN(C(=O)c3ccc(Cl)cc3)CC2)nc1` the AC50 [4] was 25.4 µM (active) and the AC50 [5] was 413 nM (active).

For `COc1ccc(OC)c(C2=NOC(C(=O)O)C2)c1` (stereo not given), the EC50 [6] was > 100 µM (inactive) and the EC50 [7] was > 100 µM (inactive).

For `COc1cc(NS(=O)(=O)c2ccccc2)c2ncccc2c1`, the IC50 [8] was 59.5 µM (inactive), the IC50 [9] was 1.32 µM (active) and the IC50 [10] was 70.7 µM (inactive).
